*1 amine or outer side, *2 acyl side, *3 side chain or, on linkers, in order; H or OH if unused. Where a SMILES comes first, the peptide text is derived from it. [ ]: non-standard residue; d: D form. The star is where a group is joined. Arg(NO2) = N=C(NCCC[C@H](N)C(=O)O)N[N+](=O)[O-]; Ser(Bzl) = O=C([C@H](COCc1ccccc1)N[*:1])[*:2]; dPhe(4-Cl) = N[C@H](Cc1ccc(Cl)cc1)C(=O)O; d2Nal = N[C@H](Cc1ccc2ccccc2c1)C(=O)O; Cit = NC(=O)NCCC[C@H](N)C(=O)O; Orn = NCCC[C@H](N)C(=O)O; Ahp = NCCCCCCC(=O)O; Bn = c1ccc(C*)cc1
How the values were obtained:
[1] = biological target: T1, hMC4-R (Homo sapiens, UniProt P32245); test: Competitive inhibition binding assay with 125I-NDP-MSH, MC4 receptor; conditions: 10 μM peptide, 0 assigned when raw inhibition between −10% and 10%, read-out: % Inhibition at 10 μM concentration at MC4-Receptor
T1 construct: expressed in transfected cells
Experimental: (§1) Competitive inhibition binding assay was conducted using membranes prepared from hMC3-R, hMC4-R, hMC5-R, and B-16 mouse melanoma cells (containing MC1-R) using 0.4 nM ^125I-NDP-MSH (0.2 nM for MCL-R) (New England Nuclear, Boston, Mass., USA) in 50 mM HEPES buffer containing 1 mM MgCl2, 2 mM CaCl2, and 5 mM KCl, at pH 7.2. The assay tube also contained a chosen concentration of the peptides of this invention, for determining inhibition of the binding of ^125I-NDP-MSH to its receptor. Non-specific binding was measured by complete inhibition of binding of ^125I-NDP-MSH in the assay in the presence of 1 μM α-MSH. Incubation was for 90 minutes at 37° C., after which the assay mixture was filtered and the membranes washed three times with ice cold buffer. The filter was dried and counted in a gamma counter for remaining radioactivity bound to the membranes. 100% specific binding was defined as the difference in radioactivity (cpm) bound to cell membranes in the absence and presence of 1 μM α-MSH. The cpm obtained in the presence of peptides of this invention were normalized with respect to 100% specific binding to determine the percent inhibition of ^125I-NDP-MSH binding. Each assay was conducted in triplicate.
(§2) The binding of the peptides of Examples 1 to 13, inclusive, to melanocortin receptors was evaluated, with results shown on Table 1. Relative binding was determined by competitive inhibition using an α-MSH analog, iodinated NDP-MSH. B16-Fl mouse melanoma cells were used as the source of MC1 receptors and HEK 293 cells, transfected with human melanocortin receptor sequences, were used as the source of MC3, MC4 and MC5 receptors. A standard competitive binding assay protocol as described above was followed, using ^125I-NDP-MSH as the radioligand. A “0” percent inhibition was assigned when the raw percent inhibition, as an average of at least triplicate measures, was between −10% and 10%; in the majority of instances, the raw percent inhibition was between −10% and 0% inhibition.

[2] = biological target: T2, MC1-R (B16-F1 mouse melanoma cells) (Mus musculus, UniProt Q01727); test: Competitive inhibition binding assay with 125I-NDP-MSH, MC1 receptor; conditions: 10 μM peptide, 0 assigned when raw inhibition between −10% and 10%, read-out: % Inhibition at 10 μM concentration at MC1-Receptor
T2 construct: B-16 mouse melanoma cells (containing MC1-R); endogenous in cells; host or cells: B16-F1 mouse melanoma cells (membranes)
Experimental: as §1, §2

[3] = biological target: T3, hMC3-R (Homo sapiens, UniProt P41968); test: Competitive inhibition binding assay with 125I-NDP-MSH, MC3 receptor; conditions: 10 μM peptide, 0 assigned when raw inhibition between −10% and 10%, read-out: % Inhibition at 10 μM concentration at MC3-Receptor
T3 construct: expressed in transfected cells; host or cells: HEK 293 cells (membranes)
Experimental: as §1, §2

[4] = biological target: T4, hMC5-R (Homo sapiens, UniProt P33032); test: Competitive inhibition binding assay with 125I-NDP-MSH, MC5 receptor; conditions: 10 μM peptide, 0 assigned when raw inhibition between −10% and 10%, read-out: % Inhibition at 10 μM concentration at MC5-Receptor
T4 construct: expressed in transfected cells; host or cells: HEK 293 cells (membranes)
Experimental: as §1, §2

[5] = test system: male Sprague-Dawley rats; test: Induction of penile erections in male rats; format: in vivo, rat
Experimental: The ability of the peptides of Examples 1 to 13 to induce penile erection in male rats was evaluated. Male Sprague-Dawley rats weighing 200-250 g were kept on a 12 hour on/off light cycle with food and water ad libitum. All behavioral studies were performed between 10 a.m. and 5 p.m. Groups of 4-8 rats were treated with peptides at a variety of doses via intravenous administration. Immediately after administration, rats were placed into individual polystyrene cages (27 cm long, 16 cm wide, and 25 cm high) for behavioral observation.
The efficacious dose of NH2—(CH2)6CO-Ser(Bzl)-D-Phe(4-Cl)-Arg, made as in Example 1 above, to induce penile erection in Sprague Dawley rats by intravenous dosing and oral administration was determined. […] NH2—(CH2)6CO-Ser(Bzl)-D-Phe(4-Cl)-Arg was efficacious at doses as low as 0.1 to 1 μg/kg of body weight when administered by oral means, and at doses lower than 0.001 μg/kg of body weight when administered by intravenous means.
The efficacious dose of NH2—(CH2)6—CO-Ser(Bzl)-D-Phe(4-Cl)-Arg(NO2), made as in Example 5 above, to induce penile erection in Sprague Dawley rats by intravenous dosing was determined. […] It was determined that NH2—(CH2)6—CO-Ser(Bzl)-D-Phe(4-Cl)-Arg(NO2) was efficacious at doses as low as 0.001 to 10 μg/kg of body weight when administered by intravenous means, with efficacy determined by induction of penile erection in 100% of animals. The optimal dose response was at 1 μg/kg of body weight. FIG. 1 depicts the dose response profile, with the error bars depicting standard deviation where n (the number of animals) is between 8 and 19, depending on the dose point.
The efficacious dose of NH2—(CH2)6—CO-Ser(Bzl)-D-Phe(4-Cl)-Arg(NO2), made as in Example 5 above, to induce penile erection in Sprague Dawley rats by intranasal administration using a micropipetor to deliver 25 μL of solution into one nostril was determined. […] It was determined that NH2—(CH2)6—CO-Ser(Bzl)-D-Phe(4-Cl)-Arg(NO2) was efficacious at doses between 0.01 μg/kg and 100 μg/kg of body weight when administered by intranasal means. The peak dose response was at an intranasal dose of 0.1 μg/kg of body weight.

[6] = test system: male rats; test: Induced penile erections after pre-administration of MC4-R antagonist SHU9119; format: in vivo, rat; conditions: SHU9119 approximately 5 minutes before peptide
Source text: It is known that MC4-R antagonists inhibit the erectile activity of MC4-R agonists in a dose dependent manner. Such antagonists include SHU9119, a nonselective melanocortin antagonist of the formula Ac-Nle-cyc/o(-Asp-His-D-Nal(2′)-Arg-Trp-Lys)-NH2 (Hruby V. J., Lu D., Sharma S. D., et al. Cyclic lactam alpha-melanotropin analogues of Ac-Nle^4-cyclo[Asp^5, D-Phe^7, Lys^10]-NH2 with bulky aromatic amino acids at position 7 show high antagonist potency and selectivity at specific melanocortin receptors. J Med Chem 38:3454-3461 (1995)). Antagonists such as SHU9119 are known to inhibit MT-II and other known melanocortin receptor-specific agonists that induce erectile activity. SHU9119 was administered to male rats approximately 5 minutes before administration of either NH2—(CH2)6CO-Ser(Bzl)-D-Phe(4-Cl)-Arg or NH2—(CH2)6CO-Ser(Bzl)-D-Phe(4-Cl)-Arg-Trp-NH2, with Ac-Nle-cyc/o(Asp-His-D-Phe-Arg-Trp-Lys)-OH, a known MC4-R agonist, as a positive control.

T2 sequence (Q01727 whole entry): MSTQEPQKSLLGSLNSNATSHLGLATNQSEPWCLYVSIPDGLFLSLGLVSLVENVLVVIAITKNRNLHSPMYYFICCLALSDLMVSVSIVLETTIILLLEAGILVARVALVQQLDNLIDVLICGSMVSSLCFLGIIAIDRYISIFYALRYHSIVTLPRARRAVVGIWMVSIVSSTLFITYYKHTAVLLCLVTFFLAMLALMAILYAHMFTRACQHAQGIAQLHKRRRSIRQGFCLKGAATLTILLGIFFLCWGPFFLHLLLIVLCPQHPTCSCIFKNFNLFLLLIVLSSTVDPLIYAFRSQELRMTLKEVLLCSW
T1 sequence (P32245 whole entry): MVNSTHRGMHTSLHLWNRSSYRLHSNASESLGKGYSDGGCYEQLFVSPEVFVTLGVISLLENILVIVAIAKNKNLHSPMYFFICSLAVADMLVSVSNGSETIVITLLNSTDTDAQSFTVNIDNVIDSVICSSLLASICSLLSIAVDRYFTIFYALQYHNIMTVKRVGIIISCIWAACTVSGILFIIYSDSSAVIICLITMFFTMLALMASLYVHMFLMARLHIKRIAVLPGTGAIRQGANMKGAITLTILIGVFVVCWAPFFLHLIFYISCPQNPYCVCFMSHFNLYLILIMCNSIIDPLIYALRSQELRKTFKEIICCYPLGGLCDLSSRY
T4 sequence (P33032 whole entry): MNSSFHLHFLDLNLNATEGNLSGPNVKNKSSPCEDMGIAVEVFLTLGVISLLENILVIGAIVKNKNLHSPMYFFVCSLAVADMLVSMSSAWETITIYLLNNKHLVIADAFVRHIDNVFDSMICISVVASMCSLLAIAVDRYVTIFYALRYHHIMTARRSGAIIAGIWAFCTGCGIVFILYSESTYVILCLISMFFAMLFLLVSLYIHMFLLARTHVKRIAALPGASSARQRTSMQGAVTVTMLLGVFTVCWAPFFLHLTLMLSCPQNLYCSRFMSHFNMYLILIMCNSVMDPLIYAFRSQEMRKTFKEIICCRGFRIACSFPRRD
T3 sequence (P41968 whole entry): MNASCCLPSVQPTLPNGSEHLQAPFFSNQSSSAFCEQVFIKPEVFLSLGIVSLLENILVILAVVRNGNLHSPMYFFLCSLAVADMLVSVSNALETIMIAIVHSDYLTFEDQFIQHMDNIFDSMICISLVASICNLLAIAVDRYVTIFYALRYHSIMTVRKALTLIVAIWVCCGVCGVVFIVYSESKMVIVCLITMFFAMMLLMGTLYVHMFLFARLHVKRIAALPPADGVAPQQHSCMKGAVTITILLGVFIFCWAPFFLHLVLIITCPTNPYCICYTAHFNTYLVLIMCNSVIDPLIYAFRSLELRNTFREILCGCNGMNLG

Row | inhibition at 10 µM [1] [%] | inhibition at 10 µM [2] [%] | inhibition at 10 µM [3] [%] | inhibition at 10 µM [4] [%] | Compound | animals with induction of penile erection at efficacious doses ([5]; intravenous, 0.001 to 10 μg/kg) [%] | peak (optimal) dose response, intranasal ([5]; male Sprague Dawley rats) [µg/kg] | peak (optimal) dose response, intranasal ([5]; male Sprague Dawley rats, listed as NH2—(CH2)6Co-Ser(Bzl)-D-Phe(4-Cl)-Arg(NO2)) | optimal dose response, intravenous ([5]; male Sprague Dawley rats, intravenous) [µg/kg] | effect of SHU9119 pre-administration on induced erections [6]
1 | 0 | 0 | 0 | 0 | N=C(N)NCCC[C@H](NC(=O)[C@@H](Cc1ccc2ccccc2c1)NC(=O)[C@H](COCc1ccccc1)NC(=O)CCCCCCN)C(N)=O [NH2—(CH2)6—CO-Ser(Bzl)-D-Nal 2-Arg-NH2] (H-[Ahp]S(Bn)[d2Nal]R-NH2) | – | – | – | – | –
2 | 0 | 0 | 0 | 0 | C[C@H](NC(=O)[C@@H](Cc1ccc(Cl)cc1)NC(=O)[C@H](COCc1ccccc1)NC(=O)CCCCCCN)C(=O)O [NH2—(CH2)6—CO-Ser(Bzl)-D-Phe(4-Cl)-Ala] (H-[Ahp]S(Bn)[dPhe(4-Cl)]A-OH) | – | – | – | – | –
3 | 0 | 0 | 0 | 0 | N=C(N)NCCC[C@H](NC(=O)[C@@H](Cc1ccc2ccccc2c1)NC(=O)[C@H](COCc1ccccc1)NC(=O)CCCCCCN)C(=O)O [NH2—(CH2)6—CO-Ser(Bzl)-D-Nal 2-Arg] (H-[Ahp]S(Bn)[d2Nal]R-OH) | – | – | – | – | –
4 | 0 | 0 | 0 | 0 | C[C@@H](NC(=O)[C@H](COCc1ccccc1)NC(=O)CCCCCCN)C(=O)N[C@@H](CCCNC(=N)N)C(=O)O [NH2—(CH2)6—CO-Ser(Bzl)-D-Ala-Arg] (H-[Ahp]S(Bn)[dA]R-OH) | – | – | – | – | –
5 | 0 | 0 | 0 | 0 | NCCCCCCC(=O)N[C@@H](COCc1ccccc1)C(=O)N[C@H](Cc1ccc(Cl)cc1)C(=O)N[C@@H](CCCN)C(=O)O [NH2—(CH2)6—CO-Ser(Bzl)-D-Phe(4-Cl)-Orn] (H-[Ahp]S(Bn)[dPhe(4-Cl)][Orn]-OH) | – | – | – | – | –
6 | 0 | 0 | 0 | 0 | NCCCCCCC(=O)N[C@@H](COCc1ccccc1)C(=O)N[C@H](Cc1ccc(Cl)cc1)C(=O)N[C@@H](CCCNC(N)=O)C(=O)O [NH2—(CH2)6—CO-Ser(Bzl)-D-Phe(4-Cl)-Cit] (H-[Ahp]S(Bn)[dPhe(4-Cl)][Cit]-OH) | – | – | – | – | –
7 | 0 | 0 | 0 | 0 | N=C(N)NCCC[C@H](NC(=O)[C@@H](Cc1ccc(Cl)cc1)NC(=O)[C@@H](N)COCc1ccccc1)C(=O)O [Ser(Bzl)-D-Phe(4-Cl)-Arg] (H-Ser(Bn)-[dPhe(4-Cl)]-Arg-OH) | – | – | – | – | –
8 | 0 | 0 | 0 | 0 | CC(=O)N[C@@H](COCc1ccccc1)C(=O)N[C@H](Cc1ccc(Cl)cc1)C(=O)N[C@@H](CCCNC(=N)N)C(=O)O [Ac-Ser(Bzl)-D-Phe(4-Cl)-Arg] (Ac-Ser(Bn)-[dPhe(4-Cl)]-Arg-OH) | – | – | – | – | –
9 | 0 | 0 | 0 | 0 | N=C(N)NCCC[C@H](NC(=O)[C@@H](Cc1ccc(Cl)cc1)NC(=O)[C@H](COCc1ccccc1)NC(=O)CCCCCCN)C(N)=O [NH2—(CH2)6—CO-Ser(Bzl)-D-Phe(4-Cl)-Arg-NH2] (H-[Ahp]S(Bn)[dPhe(4-Cl)]R-NH2) | – | – | – | – | –
10 | 0 | 0 | 0 | 0 | C[C@H](NC(=O)CCCCCCN)C(=O)N[C@H](Cc1ccc(Cl)cc1)C(=O)N[C@@H](CCCNC(=N)N)C(=O)O [NH2—(CH2)6—CO-Ala-D-Phe(4-Cl)-Arg] (H-[Ahp]A[dPhe(4-Cl)]R-OH) | – | – | – | – | –
11 | 0 | 0 | 0 | 0 | NCCCCCCC(=O)N[C@@H](COCc1ccccc1)C(=O)N[C@H](Cc1ccc(Cl)cc1)C(=O)N[C@@H](CCCNC(N)=N[N+](=O)[O-])C(=O)O [NH2—(CH2)6—CO-Ser(Bzl)-D-Phe(4-Cl)-Arg(NO2)] (H-[Ahp]S(Bn)[dPhe(4-Cl)][Arg(NO2)]-OH) | 100 | 0.1 | about 0.1 μg/kg | 1 | –
12 | – | – | – | – | NH2—(CH2)6CO-Ser(Bzl)-D-Phe(4-Cl)-Arg-Trp-NH2 ({NH2‑(CH2)6‑CO}-[Ser(Bzl)][dPhe(4-Cl)]RW-NH2) | – | – | – | – | resulted in erections at a rate equivalent to that obtained without pre-administration of SHU9119
13 | 0 | 0 | 0 | 0 | NCCCCCCC(=O)N[C@@H](COCc1ccccc1)C(=O)N[C@H](Cc1ccc(Cl)cc1)C(=O)N[C@@H](CCCCN)C(=O)O [NH2—(CH2)6—CO-Ser(Bzl)-D-Phe(4-Cl)-Lys] (H-[Ahp]S(Bn)[dPhe(4-Cl)]K-OH) | – | – | – | – | –

From patent publication US7795378B2, “Peptide compositions for treatment of sexual dysfunction” (Palatin Technologies, Inc., priority 2002, dated 2010)
